Reference: patent US11247996B2, “Small molecule inhibitors for transcription factors” (University of Massachusetts, priority 2016, dated 2022)

How the values were obtained:
TAF1 = TAF1 (Homo sapiens, UniProt P21675); settings: McKeown et al., J Med Chem, 2014; cited from earlier work
BRD4 = BRD4 (Homo sapiens, UniProt O60885); settings: McKeown et al., J Med Chem, 2014; cited from earlier work
[1] = system: latent HIV-1 in J-Lat A2 cells; experiment: HIV-1 latency-reversing flow cytometry assay in J-Lat A2 cells; format: cell-based; settings: 5 μM; for HIV-1 reactivation (GFP-positive cells): 24 hours post treatment
Method: (§1) The CD4+ T-lymphoid cell lines included Jurkat, J-Lat A2 (harboring an LTR-Tat-IRES-GFP construct), J-Lat 6.3, 8.4, 9.2, 10.4 (containing a full-length integrated HIV-1 genome with a defective envelop, that express GFP upon activation). Monocytic THP89GFP cells were provided by David Levy (New York University). Jurkat cells were cultured in RPMI with 10% FBS. THP89GFP and Primary CD4+ helper T cells (Sanguine Biosciences, Sherman Oaks, Calif. and Lonza Group Ltd., Basel, Switzerland) were cultured and maintained respectively in complete medium (RPMI 1640 with 10% FBS, lx glutamine, lx MEM non-essential amino acid solution, and 20 mM HEPES).
Wells were treated with 5 μM of compound or dimethyl sulfoxide (DMSO). GFP-positive cells were acquired and analyzed by flow cytometry at 24 hours post treatment.
(§2) All flow cytometry assays were conducted using an Accuri C6 Flow Cytometer (Accuri, Ann Arbor, Mich.). Cell debris and aggregates were excluded by gating on the Forward Scatter (FS) and Side Scatter (SS) parameters.

[2] = system: latent HIV-1 in J-Lat clones (6.3, 8.4, 9.2, and 10.4); experiment: Flow cytometry on J-Lat full-length (dEnv) clones, single LRA; format: cell-based; settings: J-Lat 6.3, 8.4, 9.2, 10.4; UMB-136 2.5 and 5 (printed PM), JQ1 1 μM; 24 hours
Method: as §1
(§3) The HIV-1 latency-reversing effect of UMB-136 was evaluated on different reservoirs (lymphocytes and macrophages), J-Lat cell clones (6.3, 8.4, 9.2, and 10.4) and THP89GFP were treated with DMSO, JQ1 (1 μM), or UMB-136 (2.5, 5 μM for J-Lat cells, 5 μM for THP89GFP). For the investigation of synergistic effects JLat clones were treated with UMB-136 (2.5 μM), JQ1 (1 μM), SAHA (0.5 μM) or prostratin (1 μM) or DMSO as a control. Drugs were used alone or in combination. Flow cytometry was conducted at 24 hours post treatment and GFP-positive cells were quantified.
(§4) All flow cytometry assays were conducted using an Accuri C6 Flow Cytometer (Accuri, Ann Arbor, Mich.). […]

[3] = system: full-length HIV-1 NL4-3 (X4) viruses in Jurkat cells; experiment: Viral production in full-length HIV-1 NL4-3 infected Jurkat cells (qRT-PCR of medium); format: cell-based; settings: full replication competent NL4-3 infected Jurkat cells, 24 hours
Method: To determine the effect of UMB-136 on HIV-1 replication, Jurkat cells were infected with full-length HIV-1 NL4-3 (X4) viruses for 8 hours before being treated with compounds (UMB-136, JQ1, or prostratin) for 24 hours. The medium was collected and subjected to viral RNA extraction, reverse transcription, and qPCR assays by using Lenti-X™ qRT-PCR Titration Kit (Clontech, Mountain View, Calif.) following the manufacturer's instructions.

[4] = system: latent HIV-1 in non-polarized, memory CD4+ T cells; experiment: Primary CD4+ T cell model of HIV-1 latency (blood or tonsil); format: cell-based; settings: primary CD4+ T cells from blood or lymph node (tonsil), two donors; compound alone
Method: To acquire primary CD4+ T cells, primary CD4+ T cells were isolated from either lymphoid tissue (tonsil) or from the peripheral blood of two donors. Tonsils were isolated from HIV-negative donors, with obstructive sleep apnea (OSA), whom required surgical removal of their tonsils. Isolation of tonsillar mononuclear cells (TMC) was performed as described in Johnston et al. Curr Protoc Immunol Chapter 7, Unit 7-8. In brief, fresh, healthy tonsils kept in ice-cold 1× Hank's Balanced Salt Solution (HBSS) with antibiotics (100 U/mL penicillin, 100 ug/mL streptomycin, 5 ug/mL gentamicin, 0.5 ug/mL amphotericin) were cut into 3- to 10-mm fragments with scalpels then pushed through a 3-inch stainless steel sieve using the flat end of a 5-mL plastic syringe plunger. […]
The LRA effect of UMB-136 was studied by modifying slightly a primary CD4+ T cell model of HIV-1 latency as described in Bosque et al. Methods. […] On day 21, 5 days post treatment, the supernatant was collected for quantification of newly produced viruses using the Lent-X™ qRT-PCR Titration Kit (Clontech, Mountain View, Calif.) following the manufacturer's instructions.

[5] = system: latent HIV-1 89.6 strain in THP89GFP cells; experiment: Flow cytometry on THP89GFP monocytic latency cells; format: cell-based; settings: UMB-136 5 μM, JQ1 1 μM, 24 hours
Method: as §1, §3, §4

[6] = system: latent HIV-1 in J-Lat clones (6.3, 8.4, 9.2, and 10.4); experiment: LRA combinations in J-Lat clones (flow cytometry, Bliss independence model); format: cell-based; settings: for Synergy in reversing HIV-1, combination with prostratin: +prostratin 1 μM
Method: as §3, §2

[7] = system: latent HIV-1 in CD8-depleted PBMCs; settings: JQ1 in combination with bryostatin-1, earlier reports; cited from earlier work
[8] = system: VSV-G pseudo-typed HIV-1 NL4-3-Luciferase virus infected Jurkat cells; format: cell-based
primary CD4+ T cells = experiment: Cytokine release in primary CD4+ T cells from healthy donor; format: cell-based
Jurkat cells = settings: human, 24 h, 2.5 μM
Method: Cell viability assays were performed by culturing Jurkat cells in a 48-well plate at 1×10^5 cells per well in a total volume of 250 μl RPMI media with 10% FBS. […] After an incubation period of 24 hours, cells were lysed. The total ATP content was measured using Cell Titer Glo (Promega Corporation, Madison, Wis.).

endogenous BRD4 = target: T1, endogenous BRD4 (Homo sapiens, UniProt O60885); experiment: Pull-down with biotinylated UMB-136 from HEK293 cell lysate, BRD4 immunoblot; format: binding; settings: biotinylated UMB-136, HEK293 cell lysate
T1 construct: endogenous in cells; host or cells: HEK293
Method: (§5) Pull-down and Immunoprecipitation (IP) assays were performed by incubating HEK293 cell lysate with either biotinylated UMB-136 or biotin in DMSO at 4° C. overnight with orbital rocking. MyOne™ Streptavidin T1 Dynabeads™ (Invitrogen, Carlsbad, Calif.) were added to the mixture which was then incubated for 2 hours. Beads were washed and then boiled to elute precipitated proteins, which were subjected to immunoblotting using BRD4 antibody (Bethyl Laboratories, Inc., Montgomery, Tex.) or BRD2 antibody (Santa Cruz Biotechnology, Dallas, Tex.).

[9] = system: latent HIV-1 in CD8-depleted PBMCs; experiment: Ex vivo latency reversal in CD8-depleted PBMCs of cART-treated aviremic patients (nested qPCR); format: cell-based
CD8-depleted PBMCs = experiment: Cell death due to LRA treatments in CD8-depleted PBMCs; format: cell-based; settings: compared with JQ1 combinations
P-TEFb (CCNT1) and Tat = experiment: Tat-Flag immunoprecipitation in HeLa cells, Cyclin T1 immunoblot; format: cell-based; settings: 2.5 μM, 24 hours
Method: Tat-Flag expressing HeLa cells were treated with UMB-136 (2.5 μM) or DMSO for 24 hours, then incubated with Magnetic Flag Conjugated beads (Clontech, Mountain View, Calif.) at 4° C. for overnight with orbital rocking. Beads were washed and boiled, then immunoblotting was performed using Cyclin T1 antibody (Santa Cruz Biotechnology, Dallas, Tex.).

BRD2 = target: T2, BRD2 (Homo sapiens, UniProt P25440); experiment: Pull-down with biotinylated UMB-136 from HEK293 cell lysate, BRD2 immunoblot; format: binding; settings: biotinylated UMB-136, HEK293 cell lysate
T2 construct: endogenous in cells; host or cells: HEK293
T2 sequence (P25440 whole entry): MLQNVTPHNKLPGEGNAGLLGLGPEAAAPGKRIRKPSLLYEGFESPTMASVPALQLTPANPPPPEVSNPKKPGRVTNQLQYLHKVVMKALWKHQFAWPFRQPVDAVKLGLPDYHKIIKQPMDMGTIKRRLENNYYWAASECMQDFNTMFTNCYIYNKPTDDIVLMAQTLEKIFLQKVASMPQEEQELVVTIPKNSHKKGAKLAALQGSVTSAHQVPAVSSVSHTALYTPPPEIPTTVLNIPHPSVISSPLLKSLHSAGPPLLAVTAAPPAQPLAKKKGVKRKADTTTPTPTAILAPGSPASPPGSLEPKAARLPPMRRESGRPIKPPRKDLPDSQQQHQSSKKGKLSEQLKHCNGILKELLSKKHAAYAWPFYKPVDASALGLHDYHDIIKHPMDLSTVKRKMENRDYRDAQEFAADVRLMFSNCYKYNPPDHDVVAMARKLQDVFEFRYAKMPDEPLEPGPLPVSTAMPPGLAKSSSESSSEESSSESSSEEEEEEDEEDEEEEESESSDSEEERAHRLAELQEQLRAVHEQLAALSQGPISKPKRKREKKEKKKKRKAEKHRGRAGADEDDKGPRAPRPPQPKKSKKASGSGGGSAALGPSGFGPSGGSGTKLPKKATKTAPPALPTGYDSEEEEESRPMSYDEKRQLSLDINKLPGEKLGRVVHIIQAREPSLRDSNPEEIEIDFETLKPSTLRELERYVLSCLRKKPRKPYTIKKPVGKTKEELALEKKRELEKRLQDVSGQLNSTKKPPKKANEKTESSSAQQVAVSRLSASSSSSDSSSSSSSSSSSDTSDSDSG
Method: as §5

[10] = J-Lat clones, Bliss independence model

Sequence of TAF1 (P21675 whole entry): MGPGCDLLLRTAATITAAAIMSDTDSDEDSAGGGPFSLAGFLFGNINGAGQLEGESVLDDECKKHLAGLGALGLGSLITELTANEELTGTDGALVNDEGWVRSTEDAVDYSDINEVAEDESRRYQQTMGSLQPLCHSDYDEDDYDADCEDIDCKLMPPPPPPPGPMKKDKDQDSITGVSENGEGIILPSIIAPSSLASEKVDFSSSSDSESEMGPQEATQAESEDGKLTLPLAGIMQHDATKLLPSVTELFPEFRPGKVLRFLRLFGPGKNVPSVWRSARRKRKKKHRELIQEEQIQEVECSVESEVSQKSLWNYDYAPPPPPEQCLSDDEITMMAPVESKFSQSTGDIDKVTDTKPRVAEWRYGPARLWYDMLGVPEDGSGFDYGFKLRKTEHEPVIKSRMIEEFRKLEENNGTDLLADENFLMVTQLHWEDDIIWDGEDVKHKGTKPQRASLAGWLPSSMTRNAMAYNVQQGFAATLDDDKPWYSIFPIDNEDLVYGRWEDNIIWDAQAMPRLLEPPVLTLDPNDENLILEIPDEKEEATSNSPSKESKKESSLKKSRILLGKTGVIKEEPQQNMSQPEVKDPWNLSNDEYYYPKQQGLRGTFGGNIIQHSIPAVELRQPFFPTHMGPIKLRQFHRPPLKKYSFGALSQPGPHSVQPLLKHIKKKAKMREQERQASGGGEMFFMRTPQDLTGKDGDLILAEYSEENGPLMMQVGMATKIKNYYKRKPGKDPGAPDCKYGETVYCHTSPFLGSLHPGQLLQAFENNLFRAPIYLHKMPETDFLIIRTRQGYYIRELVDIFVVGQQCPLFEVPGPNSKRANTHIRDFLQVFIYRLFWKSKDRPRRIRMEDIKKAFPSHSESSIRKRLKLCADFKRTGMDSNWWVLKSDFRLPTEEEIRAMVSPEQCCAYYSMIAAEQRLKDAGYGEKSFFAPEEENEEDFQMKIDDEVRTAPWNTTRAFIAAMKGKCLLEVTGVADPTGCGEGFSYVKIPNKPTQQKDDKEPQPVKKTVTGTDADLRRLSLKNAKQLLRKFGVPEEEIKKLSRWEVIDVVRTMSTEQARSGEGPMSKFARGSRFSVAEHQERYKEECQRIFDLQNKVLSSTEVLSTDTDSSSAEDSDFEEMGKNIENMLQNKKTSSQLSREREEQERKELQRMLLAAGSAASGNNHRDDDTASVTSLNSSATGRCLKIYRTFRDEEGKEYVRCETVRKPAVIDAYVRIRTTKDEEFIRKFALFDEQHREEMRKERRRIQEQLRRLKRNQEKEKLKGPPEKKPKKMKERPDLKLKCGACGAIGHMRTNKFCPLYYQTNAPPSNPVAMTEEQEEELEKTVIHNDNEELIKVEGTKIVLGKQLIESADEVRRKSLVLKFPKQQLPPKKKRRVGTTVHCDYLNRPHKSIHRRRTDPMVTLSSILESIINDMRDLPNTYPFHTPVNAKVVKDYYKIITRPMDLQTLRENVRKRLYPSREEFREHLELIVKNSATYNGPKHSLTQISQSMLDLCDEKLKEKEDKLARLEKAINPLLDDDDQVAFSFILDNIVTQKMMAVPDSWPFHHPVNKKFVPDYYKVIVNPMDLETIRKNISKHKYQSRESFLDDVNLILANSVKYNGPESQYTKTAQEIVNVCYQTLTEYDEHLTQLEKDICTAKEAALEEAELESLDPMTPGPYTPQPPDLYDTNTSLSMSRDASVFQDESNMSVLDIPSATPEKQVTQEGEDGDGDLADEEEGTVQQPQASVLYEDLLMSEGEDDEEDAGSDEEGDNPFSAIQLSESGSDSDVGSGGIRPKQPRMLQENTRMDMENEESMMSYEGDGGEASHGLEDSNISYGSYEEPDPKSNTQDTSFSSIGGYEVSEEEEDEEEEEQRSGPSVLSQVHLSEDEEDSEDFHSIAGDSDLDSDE

Cc1noc(C)c1-c1ccc(-c2nc3cnccn3c2NC(C)(C)C)cc1 [UMB-32]
Binding to TAF1 (TAF1): strongly binds
Binding to BRD4 (BRD4): strongly binds
Inhibition of target binding of BRD4 (BRD4): potently inhibits the target binding of BRD4
HIV-1 reactivation (GFP-positive cells) [1]: significantly induced HIV-1 reactivation

Cc1sc2c(c1C)C(c1ccc(Cl)cc1)=N[C@@H](CC(=O)OC(C)(C)C)c1nnc(C)n1-2 [JQ1, reference compound]
Reversal of HIV-1 latency (GFP-positive cells) [2]: no observable effect
Viral production [3]: did not
Reactivation of latent virus [4]: fails to do so
Reactivation of latent HIV-1 [5]: did not
Reactivation of latent HIV-1, combination with SAHA ([6]; J-Lat cell clones, JQ1+SAHA combination): minimally reactivates latent HIV-1
Synergy in reversing HIV-1, combination with prostratin [6, 10]: significantly synergizes with prostratin
Reversal of HIV-1 latency, combination with bryostatin-1 (reported) [7]: potently reverse HIV-1 latency

COc1cc(-c2c(C)noc2C)ccc1-c1nc2cnccn2c1NC1CCCCC1 [UMB-136]
Reversal of HIV-1 latency (GFP-positive cells) [2]: dramatically reversed HIV-1 latency
HIV-1 transcriptional initiation and elongation [8]: enhances both transcriptional initiation and elongation of HIV-1
Cytokine release (primary CD4+ T cells): does not induce cytokine release
Cell viability (Jurkat cells): same viability as 1 μM of JQ1
Viral production [3]: enhanced viral production
Binding to endogenous BRD4 (pull-down) (endogenous BRD4): binds to endogenous BRD4
Viral reactivation, combination with bryostatin-1, compared with JQ1+bryostatin-1 [9]: even greater viral reactivation
Reversal of HIV-1 latency, combination with PKC agonists (prostratin or bryostatin-1) ([9]; CD8-depleted PBMCs, UMB-136 2.5 μM, prostratin 250 nM or bryostatin-1 10 nM, 48 hours): observed to reverse HIV-1 latency
Reactivation of latent virus [4]: efficiently reactivated latent virus
Reactivation of latent HIV-1 [5]: substantial reactivation
Synergy in reversing HIV-1, combination with SAHA ([6]; J-Lat clones, Bliss independence model, +SAHA 0.5 μM): statistically significant synergistic effect
Synergy in reversing HIV-1, combination with prostratin [6, 10]: statistically significant synergistic effect
HIV-1 reactivation in combination with SAHA or prostratin, compared with JQ1 combination ([6]; J-Lat clones, UMB-136 2.5 μM, SAHA 0.5 μM, prostratin 1 μM): greater effect of HIV-1 reactivation than its JQ1 counterpart
Cytotoxicity (cell death) of combinations with prostratin/bryostatin-1 (CD8-depleted PBMCs): less cytotoxicity than JQ1 and prostratin/bryostatin-1 combinations
Protein association between P-TEFb (CCNT1) and Tat (P-TEFb (CCNT1) and Tat): greater protein association between P-TEFb (CCNT1) and Tat
HIV-1 latency-reversing potency relative to other UMB compounds ([1]; 24 hours): most effective of all
HIV-1 reactivation (GFP-positive cells) [1]: significantly induced HIV-1 reactivation
Binding to BRD2 (pull-down) (BRD2): not BRD2
